Reference: patent US20150313891A1, “NEURONAL NICOTINIC AGONISTS AND METHODS OF USE” (AbbVie Inc., priority 2014, published 2015)

Legend:
AD = assay: Phase 2a study, symptomatic treatment of AD; assay type: in vivo, human
MPTP-lesioned monkeys [1] = assay: Cognitive testing, object retrieval task; assay type: in vivo, squirrel monkeys (Saimiri sciureus); conditions: for Attempts / Latency: 90 min after first L-dopa gavage, mean ± SEM, 5 monkeys
Description: To evaluate cognitive performance, an object retrieval task was used that measures a component of prefrontal cortex dependent cognitive control involving inhibition of an initial learned response after subsequent spatial reversals (Lyons et al. 2000, Lyons et al. 2004, Zhang et al. 2013). The apparatus used consists of a clear Plexiglas box (8×8×8 cm) with one open side, containing a small piece of marshmallow (Lyons et al. 2000, Lyons et al. 2004). The box is locked into place on a metallic platform hooked onto the front of the monkey cage. Control and MPTP-lesioned monkeys were scored for the average time and number of trials required to retrieve the marshmallow in 30 sec. The effect of ABT-126 administration was tested once weekly on Friday. […] These latter two sets of monkeys had previously been given ABT-894 and ABT-107 but using somewhat different treatment regimens. The present study was done after a 7 wk washout period, at which point LIDs were similar in all groups. ABT-126 was administered orally in a small cracker 30 min before L-dopa/carbidopa twice daily. […] It was provided in the drinking water starting at 50 μg/ml for 2 days, increased to 150 μg/ml for another two days and then maintained at 300 μg/ml. ABT-126 was tested at 0.03, 0.10, 0.30 and 1.0 mg/kg, with each dose of ABT-126 tested for 1 or 2 wk. Statistical analyses were done using GraphPad Prism. One- or two-way ANOVA was used for multiple group comparisons followed by a Newman-Keuls or Bonferroni post hoc test. Differences in rating scores between groups were analyzed using nonparametric tests (Mann-Whitney test). Data for rating scores was provided as the median (nonparametric) or mean±SEM (parametric). A value of P ≦0.05 is considered statistically significant. Values expressed are the mean±SEM of the indicated number of monkeys.

MPTP-lesioned monkeys [2] = assay: Parkinsonian ratings in MPTP-lesioned monkeys; assay type: in vivo, squirrel monkeys (Saimiri sciureus); conditions: for Parkinsonian scores Before L-dopa: 45 min before L-dopa; for Parkinsonian scores Before L-dopa / Parkinsonian scores After L-dopa: mean ± SEM, 5 monkeys; for Parkinsonian scores After L-dopa: 90 min after L-dopa (10 mg/kg)/carbidopa (2.5 mg/kg)
Description: After quarantine, all monkeys were trained to perform various motor and other tasks for future assessment of parkinsonism and other behaviors (Quik et al. 2013b, Zhang et al. 2013, Quik et al. 2007, Quik et al. 2013a). […] Sigma-Aldrich, St. Louis, Mo.) dissolved in saline (n=21), as described (Quik et al. 2013b, Zhang et al. 2013, Quik et al. 2007, Quik et al. 2013a). […] These include spatial hypokinesia (use of available cage space), body bradykinesia (slowness in body movement), manual dexterity in both left and right hands, balance (ability to hold on to the cage bars), freezing, and action tremor as described (Quik et al. 2013b, Zhang et al. 2013, Quik et al. 2007, Quik et al. 2013a). MPTP injections were repeated (1.5-1.9 mg/kg sc per time) if the monkeys were not parkinsonian and to maintain parkinsonism. Parkinsonism was rated once weekly on Monday. […] These latter two sets of monkeys had previously been given ABT-894 and ABT-107 but using somewhat different treatment regimens. The present study was done after a 7 wk washout period, at which point LIDs were similar in all groups. […] It was provided in the drinking water starting at 50 μg/ml for 2 days, increased to 150 μg/ml for another two days and then maintained at 300 μg/ml. ABT-126 was tested at 0.03, 0.10, 0.30 and 1.0 mg/kg, with each dose of ABT-126 tested for 1 or 2 wk. Statistical analyses were done using GraphPad Prism. One- or two-way ANOVA was used for multiple group comparisons followed by a Newman-Keuls or Bonferroni post hoc test. Differences in rating scores between groups were analyzed using nonparametric tests (Mann-Whitney test). Data for rating scores was provided as the median (nonparametric) or mean±SEM (parametric). A value of P ≦0.05 is considered statistically significant. Values expressed are the mean±SEM of the indicated number of monkeys.

MPTP-lesioned monkeys [3] = assay: L-dopa-induced dyskinesias (LIDs) ratings in MPTP-lesioned monkeys; assay type: in vivo, squirrel monkeys (Saimiri sciureus)
Description: The objective of the current study was to test the effect of the α7 nAChR agonist ABT-126 for its ability to reduce L-dopa-induced dyskinesias (LIDs) in MPTP-lesioned monkeys. […] All monkeys were orally gavaged with L-dopa/carbidopa twice daily, which led to the development of stable abnormal involuntary movements or dyskinesias. […] These latter two sets of monkeys had previously been given ABT-894 and ABT-107 but using somewhat different treatment regimens. The present study was done after a 7 wk washout period, when LIDs were similar in all groups. ABT-126 was administered orally in a small cracker 30 min before L-dopa (10 mg/kg) and carbidopa (2.5 mg/kg). […] ABT-126 was tested at 0.03, 0.10, 0.30 and 1.0 mg/kg, with each dose of ABT-126 tested for 1 or 2 wk. […] ABT-126 at 0.10 mg/kg reduced LIDs by ˜40%, while the 0.30 and 1.0 mg/kg ABT-126 doses decreased LIDs up to 60%. We also tested the effect of ABT-126 (1.0 mg/kg) for its ability to reduce LIDs at a higher dose of L-dopa (15 mg/kg)/carbidopa (3.75 mg/kg). The higher dose of L-dopa led to greater LID scores in vehicle treated monkeys. […] The effect of ABT-126 was most pronounced during the latter weeks, possibly because of a greater decline with continued drug treatment. A washout is in progress to determine if LIDs return to vehicle-treated levels after ABT-126 discontinuation. There was no effect of the drug on parkinsonism or cognitive ability. Adult male and female squirrel monkeys (Saimiri sciureus) (n=21) weighing 0.6-1.2 kg were obtained from World Wide Primates (Miami, Fla.). The monkeys were quarantined for one month, as mandated by California state regulations. All studies were performed according to the NIH Guide for the Care and Use of Laboratory Animals, and were approved by the Institutional Animal Care and Use Committee at SRI. Animals were housed separately in a room maintained at 27±3° C., with a 12:12-h light/dark cycle. Monkey chow, fruits, and vegetables were provided over the course of the day, with water freely available. After quarantine, all monkeys were trained to perform various motor and other tasks for future assessment of parkinsonism and other behaviors (Quik et al. 2013b, Zhang et al. 2013, Quik et al. 2007, Quik et al. 2013a). They were then injected with saline (n=5) or 2.0 mg/kg 1-methyl-4-phenyl-1,2,3,6-tetrahydropyridine sc (MPTP; Sigma-Aldrich, St. Louis, Mo.) dissolved in saline (n=21), as described (Quik et al. 2013b, Zhang et al. 2013, Quik et al. 2007, Quik et al. 2013a). […] These include spatial hypokinesia (use of available cage space), body bradykinesia (slowness in body movement), manual dexterity in both left and right hands, balance (ability to hold on to the cage bars), freezing, and action tremor as described (Quik et al. 2013b, Zhang et al. 2013, Quik et al. 2007, Quik et al. 2013a). MPTP injections were repeated (1.5-1.9 mg/kg sc per time) if the monkeys were not parkinsonian and to maintain parkinsonism. Parkinsonism was rated once weekly on Monday. The monkeys were next orally gavaged with L-dopa (10 mg/kg) plus carbidopa (2.5 mg/kg), twice daily 4.5 h apart 5 d per wk, as described (Quik et al. 2013b, Zhang et al. 2013, Quik et al. 2007, Quik et al. 2013a). While treated with L-dopa, monkeys were given only fruits and vegetables in the morning to enhance L-dopa absorption. Monkey chow, as well as more fruits and vegetables, were given several hours after the second dose of L-dopa. The monkeys were taped from 8:00 to 8:30 AM, before the first dose of L-dopa to evaluate baseline movements and then from 8:30 to 12:30 PM, following the morning L-dopa dose, to evaluate dyskinesias. LIDs were rated from the video recordings for a 1 min period every 30 min. […]

[4] = system: subjects with schizophrenia; assay: Tolerability in subjects with schizophrenia; assay type: in vivo, human; conditions: doses up to 25 mg QD, including 10 mg QD and 25 mg QD
[5] = 0.3 mg/kg ABT-126 orally, set 1
[6] = 0.3 mg/kg ABT-126 orally, set 2
[7] = ABT-126 orally, MPTP-lesioned L-dopa-treated monkeys
[8] = 0.03 mg/kg ABT-126 orally, set 1
[9] = 0.03 mg/kg ABT-126 orally, set 2
[10] = ABT-126 1.0 mg/kg orally, higher L-dopa (15 mg/kg)/carbidopa (3.75 mg/kg), wk 6
[11] = 300 μg/ml nicotine in the drinking water

c1ccc(-c2nnc(O[C@@H]3C4CC5C[C@H]3C[N@](C5)C4)s2)cc1 [ABT-126, (4s)-4-(5-phenyl-1,3,4-thiadiazol-2-yloxy)-1-azatricyclo[3.3.1.1^3,7]decane]
efficacy in the symptomatic treatment of AD (AD): signal for efficacy
Attempts (MPTP-lesioned monkeys [1]; [5]): 22.8 ± 3.2
Latency (MPTP-lesioned monkeys [1]; [5]): 21.2 ± 2.8 s
Attempts (MPTP-lesioned monkeys [1]; [6]): 18.0 ± 2.5
Latency (MPTP-lesioned monkeys [1]; [6]): 18.3 ± 3.3 s
effect on cognitive ability (MPTP-lesioned monkeys [1]; [7]): no effect
Parkinsonian scores Before L-dopa (MPTP-lesioned monkeys [2]; [8]): 4.2 ± 0.4
Parkinsonian scores After L-dopa (MPTP-lesioned monkeys [2]; [8]): 2.6 ± 0.4
Parkinsonian scores Before L-dopa (MPTP-lesioned monkeys [2]; [9]): 3.4 ± 0.7
Parkinsonian scores After L-dopa (MPTP-lesioned monkeys [2]; [9]): 2.2 ± 0.2
effect on parkinsonism (MPTP-lesioned monkeys [2]; [7]): no effect
effect on LIDs (MPTP-lesioned monkeys [3]; ABT-126 0.03 mg/kg orally 30 min before L-dopa (10 mg/kg)/carbidopa (2.5 mg/kg)): no significant effect
reduction of LIDs (MPTP-lesioned monkeys [3]; ABT-126 0.10 mg/kg orally 30 min before L-dopa (10 mg/kg)/carbidopa (2.5 mg/kg)): ~40%
hourly time course of LIDs, FIG. 2 (MPTP-lesioned monkeys [3]; ABT-126 0.3 mg/kg): maximal decline
decrease of LIDs (MPTP-lesioned monkeys [3]; ABT-126 0.30 mg/kg orally 30 min before L-dopa (10 mg/kg)/carbidopa (2.5 mg/kg)): up to 60%
decrease of LIDs (MPTP-lesioned monkeys [3]; ABT-126 1.0 mg/kg orally 30 min before L-dopa (10 mg/kg)/carbidopa (2.5 mg/kg)): up to 60%
reduction of LIDs after the afternoon dose of L-dopa (MPTP-lesioned monkeys [3]; [10]): 60%
reduction of LIDs after the morning dose of L-dopa (MPTP-lesioned monkeys [3]; [10]): 70%
decrease of LIDs, total dyskinesia scores (% vehicle), FIG. 1 (MPTP-lesioned monkeys [3]; increasing doses of ABT-126 (0.03 to 1.0 mg/kg), each for a wk, L-dopa 10 mg/kg plus carbidopa 2.5 mg/kg): ≤ 70%
tolerability [4]: well tolerated

CN1CCCC1c1cccnc1 (stereo not drawn) [Nicotine, nicotine, reference compound]
Attempts (MPTP-lesioned monkeys [1]; [11]): 23.8 ± 2.8
Latency (MPTP-lesioned monkeys [1]; [11]): 19.2 ± 2.2 s
Parkinsonian scores Before L-dopa (MPTP-lesioned monkeys [2]; [11]): 3.6 ± 0.4
Parkinsonian scores After L-dopa (MPTP-lesioned monkeys [2]; [11]): 2.4 ± 0.4
